Assay results from patent US11807644B2 (PMV Pharmaceuticals, Inc., priority 2020, dated 2023).

Target: T1, recombinant His-tag Y220C p53 DBD protein (Homo sapiens, UniProt P04637, Y220C)
T1 construct: recombinant His-tag Y220C p53 DBD protein (amino acids #˜94-312)
Assay: In vitro DNA binding activity assay (TR-FRET): binding of His-tag Y220C p53 DBD to biotin-labeled consensus DNA
Type: biochemical
Settings: SC150 = concentration to increase DNA binding by […], His-tag Y220C p53 DBD, biotin-labeled consensus DNA

Structure (SMILES) | Y220C SC150 (μM)
Cn1ccc(C(=O)NCc2nc(-c3cc4c(N[C@H]5CCN(C(C)(C)C)C[C@H]5F)cccc4n3CC(F)(F)F)no2)c1 [Compound 398B, N-{[3-(4-{[(3R,4S)-1-tert-butyl-3-fluoropiperidin-4-yl]amino}-1-(2,2,2-trifluoroethyl)-1H-indol-2-yl)-1,2,4-oxadiazol-5-yl]methyl}-1-methyl-1H-pyrrole-3-carboxamide] | * (* = 0 μM ≤ SC150 < 0.1 μM)
CN1CC[C@@H](Nc2cccc3c2cc(-c2noc(CNC(=O)c4ccn(C5(C)CCOC5)c4)n2)n3CC(F)(F)F)[C@@H](F)C1 (stereo partly drawn) [Compound 401B, N-{[3-(4-{[(3S,4R)-3-fluoro-1-methylpiperidin-4-yl]amino}-1-(2,2,2-trifluoroethyl)-1H-indol-2-yl)-1,2,4-oxadiazol-5-yl]methyl}-1-(3-methyloxolan-3-yl)-1H-pyrrole-3-carboxamide] | * (* = 0 μM ≤ SC150 < 0.1 μM)
CC(C)(C)N1CC[C@@H](Nc2cccc3c2cc(-c2noc(CNC(=O)c4cnn(C(C)(C)C)c4)n2)n3CC(F)(F)F)[C@H](F)C1 [Compound 402B, 1-tert-butyl-N-{[3-(4-{[(3R,4R)-1-tert-butyl-3-fluoropiperidin-4-yl]amino}-1-(2,2,2-trifluoroethyl)-1H-indol-2-yl)-1,2,4-oxadiazol-5-yl]methyl}-1H-pyrazole-4-carboxamide] | * (* = 0 μM ≤ SC150 < 0.1 μM)
CN1CC[C@H](F)[C@H](Nc2cccc3c2cc(-c2noc(CNC(=O)c4ccn(C5(C)CCOCC5)c4)n2)n3CC(F)(F)F)C1 [Compound 403B, N-{[3-(4-{[(3R,4S)-4-fluoro-1-methylpiperidin-3-yl]amino}-1-(2,2,2-trifluoroethyl)-1H-indol-2-yl)-1,2,4-oxadiazol-5-yl]methyl}-1-(4-methyloxan-4-yl)-1H-pyrrole-3-carboxamide] | * (* = 0 μM ≤ SC150 < 0.1 μM)
CN1CC[C@@H](Nc2cccc3c2cc(-c2noc(CNC(=O)c4cnn(C5(C)CCOCC5)c4)n2)n3CC(F)(F)F)[C@@H](F)C1 [Compound 404B, N-{[3-(4-{[(3S,4R)-3-fluoro-1-methylpiperidin-4-yl]amino}-1-(2,2,2-trifluoroethyl)-1H-indol-2-yl)-1,2,4-oxadiazol-5-yl]methyl}-1-(4-methyloxan-4-yl)-1H-pyrazole-4-carboxamide] | * (* = 0 μM ≤ SC150 < 0.1 μM)
Cn1cc(C(=O)NCc2nc(-c3cc4c(N[C@@H]5CCN(C(C)(C)C)C[C@@H]5F)cccc4n3CC(F)(F)F)no2)cn1 [Compound 405B, N-{[3-(4-{[(3S,4R)-1-tert-butyl-3-fluoropiperidin-4-yl]amino}-1-(2,2,2-trifluoroethyl)-1H-indol-2-yl)-1,2,4-oxadiazol-5-yl]methyl}-1-methyl-1H-pyrazole-4-carboxamide] | * (* = 0 μM ≤ SC150 < 0.1 μM)
Cn1cc(C(=O)NCc2nc(-c3cc4c(N[C@H]5CCN(C(C)(C)C)C[C@H]5F)cccc4n3CC(F)(F)F)no2)cn1 [Compound 406B, N-{[3-(4-{[(3R,4S)-1-tert-butyl-3-fluoropiperidin-4-yl]amino}-1-(2,2,2-trifluoroethyl)-1H-indol-2-yl)-1,2,4-oxadiazol-5-yl]methyl}-1-methyl-1H-pyrazole-4-carboxamide] | * (* = 0 μM ≤ SC150 < 0.1 μM)
CN1CC[C@H](F)[C@H](Nc2cccc3c2cc(-c2noc(CNC(=O)c4cnn(C(C)(C)C)c4)n2)n3CC(F)(F)F)C1 [Compound 408B, 1-tert-butyl-N-{[3-(4-{[(3R,4S)-4-fluoro-1-methylpiperidin-3-yl]amino}-1-(2,2,2-trifluoroethyl)-1H-indol-2-yl)-1,2,4-oxadiazol-5-yl]methyl}-1H-pyrazole-4-carboxamide] | * (* = 0 μM ≤ SC150 < 0.1 μM)
CN1CC[C@@H](F)[C@@H](Nc2cccc3c2cc(-c2noc(CNC(=O)c4cnn(C(C)(C)C)c4)n2)n3CC(F)(F)F)C1 [Compound 409B, Tert-butyl-N-[[3-[4-[[(3S,4R)-4-fluoro-1-methyl-3-piperidyl]amino]-1-(2,2,2-trifluoroethyl)indol-2-yl]-1,2,4-oxadiazol-5-yl]methyl]pyrazole-4-carboxamide] | * (* = 0 μM ≤ SC150 < 0.1 μM)
COCC(C)(C)n1cc(C(=O)NCc2nc(-c3cc4c(N[C@@H]5CCN(C(C)(C)C)C[C@@H]5F)cccc4n3CC(F)(F)F)no2)cn1 [Compound 412B, N-{[3-(4-{[(3S,4R)-1-tert-butyl-3-fluoropiperidin-4-yl]amino}-1-(2,2,2-trifluoroethyl)-1H-indol-2-yl)-1,2,4-oxadiazol-5-yl]methyl}-1-(1-methoxy-2-methylpropan-2-yl)-1H-pyrazole-4-carboxamide] | * (* = 0 μM ≤ SC150 < 0.1 μM)
COCC(C)(C)n1cc(C(=O)NCc2nc(-c3cc4c(N[C@H]5CCN(C(C)(C)C)C[C@H]5F)cccc4n3CC(F)(F)F)no2)cn1 [Compound 413B, N-{[3-(4-{[(3R,4S)-1-tert-butyl-3-fluoropiperidin-4-yl]amino}-1-(2,2,2-trifluoroethyl)-1H-indol-2-yl)-1,2,4-oxadiazol-5-yl]methyl}-1-(1-methoxy-2-methylpropan-2-yl)-1H-pyrazole-4-carboxamide] | * (* = 0 μM ≤ SC150 < 0.1 μM)
CN1CC[C@H](F)[C@H](Nc2cccc3c2cc(-c2noc(CNC(=O)c4ccn(C(C)(C)C)c4)n2)n3CC(F)(F)F)C1 [Compound 414B, 1-tert-butyl-N-{[3-(4-{[(3R,4S)-4-fluoro-1-methylpiperidin-3-yl]amino}-1-(2,2,2-trifluoroethyl)-1H-indol-2-yl)-1,2,4-oxadiazol-5-yl]methyl}-1H-pyrrole-3-carboxamide] | * (* = 0 μM ≤ SC150 < 0.1 μM)
CN1CC[C@@H](F)[C@@H](Nc2cccc3c2cc(-c2noc(CNC(=O)c4ccn(C(C)(C)C)c4)n2)n3CC(F)(F)F)C1 [Compound 415B, 1-tert-butyl-N-{[3-(4-{[(3S,4R)-4-fluoro-1-methylpiperidin-3-yl]amino}-1-(2,2,2-trifluoroethyl)-1H-indol-2-yl)-1,2,4-oxadiazol-5-yl]methyl}-1H-pyrrole-3-carboxamide] | * (* = 0 μM ≤ SC150 < 0.1 μM)
COCC(C)(C)n1ccc(C(=O)NCc2nc(-c3cc4c(N[C@@H]5CN(C)CC[C@@H]5F)cccc4n3CC(F)(F)F)no2)c1 [Compound 417B, N-{[3-(4-{[(3R,4S)-4-fluoro-1-methylpiperidin-3-yl]amino}-1-(2,2,2-trifluoroethyl)-1H-indol-2-yl)-1,2,4-oxadiazol-5-yl]methyl}-1-(1-methoxy-2-methylpropan-2-yl)-1H-pyrrole-3-carboxamide] | * (* = 0 μM ≤ SC150 < 0.1 μM)
COCC(C)(C)n1ccc(C(=O)NCc2nc(-c3cc4c(N[C@H]5CN(C)CC[C@H]5F)cccc4n3CC(F)(F)F)no2)c1 [Compound 418B, N-{[3-(4-{[(3S,4R)-4-fluoro-1-methylpiperidin-3-yl]amino}-1-(2,2,2-trifluoroethyl)-1H-indol-2-yl)-1,2,4-oxadiazol-5-yl]methyl}-1-(1-methoxy-2-methylpropan-2-yl)-1H-pyrrole-3-carboxamide] | * (* = 0 μM ≤ SC150 < 0.1 μM)
CN1CC[C@@H](F)[C@@H](Nc2cccc3c2cc(-c2noc(CNC(=O)c4ccn(C5(C)CCOCC5)c4)n2)n3CC(F)(F)F)C1 [Compound 419B, N-{[3-(4-{[(3S,4R)-4-fluoro-1-methylpiperidin-3-yl]amino}-1-(2,2,2-trifluoroethyl)-1H-indol-2-yl)-1,2,4-oxadiazol-5-yl]methyl}-1-(4-methyloxan-4-yl)-1H-pyrrole-3-carboxamide] | * (* = 0 μM ≤ SC150 < 0.1 μM)
CC1(n2ccc(C(=O)NCc3nc(-c4cc5c(N[C@@H]6CNCC[C@@H]6F)cccc5n4CC(F)(F)F)no3)c2)CCOCC1 [Compound 420B, N-{[3-(4-{[(3R,4S)-4-fluoropiperidin-3-yl]amino}-1-(2,2,2-trifluoroethyl)-1H-indol-2-yl)-1,2,4-oxadiazol-5-yl]methyl}-1-(4-methyloxan-4-yl)-1H-pyrrole-3-carboxamide] | * (* = 0 μM ≤ SC150 < 0.1 μM)
CC1(n2ccc(C(=O)NCc3nc(-c4cc5c(N[C@H]6CNCC[C@H]6F)cccc5n4CC(F)(F)F)no3)c2)CCOCC1 [Compound 421B, N-{[3-(4-{[(3S,4R)-4-fluoropiperidin-3-yl]amino}-1-(2,2,2-trifluoroethyl)-1H-indol-2-yl)-1,2,4-oxadiazol-5-yl]methyl}-1-(4-methyloxan-4-yl)-1H-pyrrole-3-carboxamide] | * (* = 0 μM ≤ SC150 < 0.1 μM)
CN1CC[C@@H](Nc2cccc3c2cc(-c2noc(CNC(=O)c4ccc(C(C)(C)C)s4)n2)n3CC(F)(F)F)[C@@H](F)C1 [Compound 422B, 5-tert-butyl-N-[[3-[4-[[(3S,4R)-3-fluoro-1-methyl-4-piperidyl]amino]-1-(2,2,2-trifluoroethyl)indol-2-yl]-1,2,4-oxadiazol-5-yl]methyl]thiophene-2-carboxamide] | * (* = 0 μM ≤ SC150 < 0.1 μM)
CN1CC[C@@H](Nc2cccc3c2cc(-c2noc(CNC(=O)c4ccn(C(C)(C)C5CC5)c4)n2)n3CC(F)(F)F)[C@@H](F)C1 [Compound 423B, 1-(2-cyclopropylpropan-2-yl)-N-{[3-(4-{[(3S,4R)-3-fluoro-1-methylpiperidin-4-yl]amino}-1-(2,2,2-trifluoroethyl)-1H-indol-2-yl)-1,2,4-oxadiazol-5-yl]methyl}-1H-pyrrole-3-carboxamide] | * (* = 0 μM ≤ SC150 < 0.1 μM)
CN1CC[C@@H](Nc2cccc3c2cc(-c2noc(CNC(=O)c4ccc(C(C)(C)O)s4)n2)n3CC(F)(F)F)[C@@H](F)C1 [Compound 424B, N-[[3-[4-[[(3S,4R)-3-fluoro-1-methyl-4-piperidyl]amino]-1-(2,2,2-trifluoroethyl)indol-2-yl]-1,2,4-oxadiazol-5-yl]methyl]-5-(1-hydroxy-1-methyl-ethyl)thiophene-2-carboxamide] | * (* = 0 μM ≤ SC150 < 0.1 μM)
